The target of this test is T1, Dual specificity protein phosphatase 1 (Homo sapiens, UniProt P28562).
T1 sequence (P28562 whole entry): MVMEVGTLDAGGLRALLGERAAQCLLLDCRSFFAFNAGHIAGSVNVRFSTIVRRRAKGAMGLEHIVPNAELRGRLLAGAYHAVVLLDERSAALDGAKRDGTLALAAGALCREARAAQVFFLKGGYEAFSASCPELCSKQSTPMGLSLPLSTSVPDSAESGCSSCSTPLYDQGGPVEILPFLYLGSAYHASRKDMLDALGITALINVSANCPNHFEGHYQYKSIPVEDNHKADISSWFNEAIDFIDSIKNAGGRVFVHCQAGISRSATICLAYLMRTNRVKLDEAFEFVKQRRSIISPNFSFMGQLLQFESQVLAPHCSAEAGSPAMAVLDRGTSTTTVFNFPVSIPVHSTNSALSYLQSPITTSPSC
Put plainly: DTT effect on MKP-1 inhibitor potency – biochemical, DTT added, probe assessment, dose response (AID 558).
In turn, `Cc1ccc(C)n1-c1cccc(C(=O)O)c1` yielded an IC50 of 16.9 µM.

For the compound `O=C(Nc1ccc2nc(-c3ccco3)c(-c3ccco3)nc2c1)N1CCCCCC1`, the IC50 came to 24.1 µM.

In turn, `CCCCCC#CCC#CCC#CCC#CCCCC(=O)O` displayed an IC50 of 13.1 µM.

For `Cn1ncnc2c(=O)n(C)c(=O)nc1-2`, the IC50 was above 50 µM.

On to `[O-]/[N+](=C\c1ccncc1)c1ccccc1`, for which it took 46.6 µM to reach half-maximal inhibition (IC50).

Compound `O=C1C=Cc2ccccc2C1=O` [1,2-dihydronaphthalene-1,2-dione] yielded an IC50 of 22.5 µM.

The compound `Cc1nc2cc(-c3cccc(F)c3)nn2c(C)c1CCC(=O)N1CCC2(CC1)OCCO2` [1-(1,4-dioxa-8-azaspiro[4.5]decan-8-yl)-3-[2-(3-fluorophenyl)-5,7-dimethyl-6-pyrazolo[1,5-a]pyrimidinyl]-1-propanone] had an IC50 above 50 µM.

Regarding `CCn1nc(-c2ccccc2)nc2c(=O)n(C)c(=O)nc1-2` [1-Ethyl-6-methyl-3-phenyl-1H-pyrimido[5,4-e][1,2,4]triazine-5,7-dione], the IC50 is above 50 µM.

On to `Cc1cc(C)n2c(SCC(=O)N3CCN(S(=O)(=O)c4ccc(Cl)cc4)CC3)nnc2n1` [1-[4-(4-chlorophenyl)sulfonyl-1-piperazinyl]-2-[(5,7-dimethyl-[1,2,4]triazolo[4,3-a]pyrimidin-3-yl)thio]ethanone], for which the IC50 was found to be 49.9 µM.

`[O-]/[N+](=C\c1ccc(OC(F)F)cc1)c1ccccc1` [1-[4-(difluoromethoxy)phenyl]-N-phenylmethanimine oxide] registered an IC50 above 50 µM.

For `CCCCn1c(SCC(=O)c2ccc(OC)cc2OC)nc2cc(S(N)(=O)=O)ccc21` [1-butyl-2-[2-(2,4-dimethoxyphenyl)-2-oxidanylidene-ethyl]sulfanyl-benzimidazole-5-sulfonamide], half-maximal inhibition (IC50) was put at 42.1 µM.

On to `CCn1nc(-c2cccs2)nc2c(=O)n(C)c(=O)nc1-2` [1-ethyl-6-methyl-3-thiophen-2-yl-pyrimido[5,4-e][1,2,4]triazine-5,7-dione], for which the IC50 is above 50 µM.

Compound `O=C(Nc1ccccc1)c1ccc2nc(-c3ccco3)c(-c3ccco3)nc2c1` [2,3-di-2-furyl-N-phenyl-6-quinoxalinecarboxamide] displayed an IC50 of 32 µM.

Take `CC(C)Cn1c(N)c(C(=O)COC(=O)c2cc(-c3ccco3)nc3ccccc23)c(=O)n(C)c1=O` [2-(2-furanyl)-4-quinolinecarboxylic acid [2-[4-amino-1-methyl-3-(2-methylpropyl)-2,6-dioxo-5-pyrimidinyl]-2-oxoethyl] ester]: the IC50 stood at 25.5 µM.

For `CCOc1ccc(-c2cc3nc(C4CCN(C(=O)OC(C)(C)C)CC4)c(C(=O)O)cn3n2)cc1` [2-(4-ethoxyphenyl)-5-[1-[(2-methylpropan-2-yl)oxy-oxomethyl]-4-piperidinyl]-6-pyrazolo[1,5-a]pyrimidinecarboxylic acid], half-maximal inhibition (IC50) was put at 27.7 µM.

In the case of `COc1ccc(-c2cc3nc(C4CCN(C(=O)OC(C)(C)C)CC4)c(C(=O)O)cn3n2)cc1` [2-(4-methoxyphenyl)-5-[1-[(2-methylpropan-2-yl)oxy-oxomethyl]-4-piperidinyl]-6-pyrazolo[1,5-a]pyrimidinecarboxylic acid], inhibition was half-maximal at 36.3 µM (IC50).

The compound `Cc1cccc(NC(=O)c2cc(NC(=O)C3CCCCC3C(=O)O)ccc2N2CCCCC2)c1` (stereo not drawn) [2-({[3-{[(3-methylphenyl)amino]carbonyl}-4-(1-piperidinyl)phenyl]amino}carbonyl)cyclohexanecarboxylic acid] gave an IC50 above 50 µM.

With `Cc1ccc(/C=C/C2=Cc3c(sc(NC(=O)CSc4nnc(N)[nH]4)c3C#N)C(C)(C)C2)o1` [2-[(5-azanyl-1H-1,2,4-triazol-3-yl)sulfanyl]-N-[3-cyano-7,7-dimethyl-5-[(E)-2-(5-methylfuran-2-yl)ethenyl]-6H-1-benzothiophen-2-yl]ethanamide], the IC50 amounted to 19.8 µM.

On to `CCCCNC(=O)c1c(N)n(CCCOC)c2nc3ccccc3nc12` [2-amino-N-butyl-1-(3-methoxypropyl)-3-pyrrolo[3,2-b]quinoxalinecarboxamide], for which the IC50 was above 50 µM.

In turn, `N#Cc1c(N)sc(=S)c2c1CCN(Cc1ccccc1)C2` [3-Amino-7-benzyl-1-thioxo-5,6,7,8-tetrahydro-1H-thiopyrano[3,4-c]pyridine-4-carbonitrile] registered an IC50 above 50 µM.

`O=C1C=C(NCc2ccc(Cl)c(Cl)c2)CC1` [3-[(3,4-dichlorobenzyl)amino]cyclopent-2-en-1-one] had an IC50 above 50 µM.

For `CCCSc1nnc(NC(=O)c2sc3nc(-c4cccs4)ccc3c2N)s1` [3-amino-N-(5-propylsulfanyl-1,3,4-thiadiazol-2-yl)-6-thiophen-2-ylthieno[2,3-b]pyridine-2-carboxamide], the IC50 was found to be 25.7 µM.

In turn, `O=C1Nc2ccccc2SC(c2ccccc2)C1O` (stereo not drawn) [3-hydroxy-2-phenyl-2,3-dihydro-1,5-benzothiazepin-4(5H)-one] showed an IC50 of 35.5 µM.

The compound `CC(C)(C)N1C(=O)Cc2c1nc(N)c1c(N)nc(N3CCCCC3CO)c(C#N)c21` (stereo not drawn) [5,6-bis(azanyl)-3-tert-butyl-8-[2-(hydroxymethyl)piperidin-1-yl]-2-oxidanylidene-1H-pyrrolo[2,3-c][2,7]naphthyridine-9-carbonitrile] registered a 50% inhibitory concentration (IC50) above 50 µM.

Take `COc1cc(/C=C(/C#N)c2ccc(F)cc2)ccc1OCc1ccc(C(=O)O)o1` [5-({4-[2-cyano-2-(4-fluorophenyl)vinyl]-2-methoxyphenoxy}methyl)-2-furoic acid]: the IC50 was above 50 µM.

With `COc1ccc(Br)cc1C=c1sc2nc(-c3ccco3)nn2c1=O` [5-[(5-bromanyl-2-methoxy-phenyl)methylidene]-2-(furan-2-yl)-[1,3]thiazolo[3,2-b][1,2,4]triazol-6-one], the IC50 is 17.2 µM.

As for `CCOc1cc(/C=C(/C#N)c2ccc(F)cc2)ccc1OCc1ccc(C(=O)O)o1` [5-[[4-[(E)-2-cyano-2-(4-fluorophenyl)ethenyl]-2-ethoxyphenoxy]methyl]furan-2-carboxylic acid], the IC50 turned out to be 41.8 µM.

For `N#Cc1c(NC(=O)c2ccc(Br)o2)n(-c2ccccc2)c2nc3ccccc3nc12` [5-bromanyl-N-(3-cyano-1-phenyl-pyrrolo[3,2-b]quinoxalin-2-yl)furan-2-carboxamide], the half-maximal inhibitory concentration (IC50) was above 50 µM.

As to `Cc1cccc(N2CCN(C(=O)Cc3c(C(=O)O)[nH]c4ccc(Cl)cc34)CC2)c1C` [5-chloranyl-3-[2-[4-(2,3-dimethylphenyl)piperazin-1-yl]-2-oxidanylidene-ethyl]-1H-indole-2-carboxylic acid], the IC50 is 46.8 µM.

The compound `CCCCCNC(=O)c1ccc2c(=O)[nH]c3c(C(=O)NCC4CCCO4)sc(=S)n3c2c1` (stereo not drawn) [5-oxo-N3-(2-oxolanylmethyl)-N8-pentyl-1-sulfanylidene-4H-thiazolo[3,4-a]quinazoline-3,8-dicarboxamide] gave an IC50 of 36.7 µM.

For `Cc1nc2c(C(=O)NCCC3=CCCCC3)c[nH]n2c(=O)c1Cl` [6-chloro-N-(2-cyclohex-1-en-1-ylethyl)-7-hydroxy-5-methylpyrazolo[1,5-a]pyrimidine-3-carboxamide], the IC50 turned out to be 49.9 µM.

In the case of `O=C(c1cccs1)c1no[n+]([O-])c1C(=O)c1cccs1` [(5-oxidanidyl-4-thiophen-2-ylcarbonyl-1,2,5-oxadiazol-5-ium-3-yl)-thiophen-2-yl-methanone], the IC50 worked out at 6.96 µM.

Consider `Nc1c(N2CCCC2)cc(Cl)c2nonc12` [(7-chloro-5-pyrrolidino-benzofurazan-4-yl)amine], for which the IC50 was above 50 µM.

These data come from BindingDB's records for doi:10.7270/Q20863PV (University of Pittsburgh, 2006).
